Results taken from patent US20060140970A1, “Proteic binding partners of TCTP and methods of modulating tumor reversion or cell apoptosis” (priority 2003, published 2006).

Columns and labels:
[1] = tested on: 293T HEK cells; assay: Polymerized tubulin fraction in cells, western blot anti-α-tubulin; assay type: cell-based
Experimental: […] The treated cells were rinsed twice in PBS, lyzed on plates with 250 μl of a microtubule-stabilizing buffer (20 mM Tris-HCl, pH 6.8, 140 mM NaCl, 0.5 % Nonidet P-40, 1 mM MgCl2, 2 mM EGTA, 4 μg/ml Taxol, protease inhibitors cocktail), scraped and transferred into a 1.5 ml microcentrifuge tube. Each plate was rinsed with a second 250 μl of lysis buffer, and the cell lysates were pooled. The lysis occurred for 20 minutes at room temperature. The microcentrifuge tubes containing 500 μl of lyzed cells contents were briefly mixed and then centrifuged at 14,000 rpm for 10 minutes at 4° C. Supernatants containing soluble tubulin were carefully separated from pellets containing polymerized tubulin and placed in a separate tube. The pellets were quickly rinsed with additional 20 μl of lysis buffer and resuspended in 125 μl of water. […] The concentration of proteins in the supernatants was measured by spectrophotometry at 595 nm (Bradford method). Using these soluble tubulin concentration values, 60 μg of the polymerized tubulin fractions were run on a 10% acrylamide gel (SDS-PAGE system) and transferred on a nitrocellulose membrane (Biorad) that was incubated with an anti-a-tubulin (Sigma) diluted 1/2000. Since TCTP overexpression lead to a decrease of OP18 phosphorylation, and consequently, contribute to the maintenance of OP18 in its active state, it was hypothesized that TCTP overexpression would induce the microtubule depolymerization. To confirm this hypothesis, an assay that enables the isolation and monitoring of the tubulin in a microtubule polymerized state only, but not in a free soluble state, was performed. Briefly, after lysis of cells in a hypotonic buffer containing low dose of Taxol (a microtubule stabilizing agent) and a centrifugation, the polymerized fraction of tubulin was preserved and purified. Then, the amount of polymerized tubulin in cells was monitored by western blot using an anti-α-tubulin antibody.

[2] = tested on: OP18 phosphorylation in 293 HEK cells; assay: OP18 phosphorylation state, native PAGE and immunoblot; assay type: cell-based; conditions: nocodazole 250 ng/ml, control cells
Experimental: Transfection, preparation of native OP18 enriched extracts, and analysis of OP18 phosphorylation levels. 293 T cells were transfected by the standard calcium phosphate method, with the following constructs: pEYFP (Clontech, BD) (negative control), pEYFP-TCTP wide type (WT) or the mutant pEYFP-TCTP S46A/S64A. Twenty four hours after the transfection, the cells were treated with nocodazole (250 ng/ml) for 0 hour, 1 hour, 2 hours, 4 hours and 8 hours, and rinsed twice in PBS. The pellets were lyzed with 3-5 volumes of lysis buffer (50 mM Tris-HCl, pH 7.5, 250 mM NaCl, 10 mM EDTA, 1% Nonidet P-40, protease inhibitors cocktail and phosphatases inhibitors (10 mM sodium orthovanadate, 10 mM natrium fluoride (NAF)) on ice for 20 minutes, and centrifuged for 10 minutes at 14,000 rpm at 4° C. The supernatants were carefully removed and stored on ice while measuring their concentration of proteins by spectrophotometry at 595 nm (Bradford method). To enrich the concentration of OP18 in the extracts, 1.2 mg of each total extract was boiled at 75° C. for 7 minutes, put on ice for 1 minute, and centrifuged for 10 minutes at 14,000 rpm at 4° C. Then, the supernatants were precipitated in 5-6 volumes of 1% sucrose in methanol O/N at −20° C. […]

COC(=O)Nc1nc2ccc(C(=O)c3cccs3)cc2[nH]1 [nocodazole]
amount of polymerized tubulin ([1]; 16 hours of treatment, compared to untreated cells): no polymerized tubulin was present | tubulin polymerization during nocodazole treatment ([1]; nocodazole 250 ng/ml, increasing time, transfected 293T HEK cells): decreased proportionally to the time length of treatment | time from which OP18 with three (3-P) and four (4-P) phosphorylated sites is detectable [2]: ≥ 2 h
